Assay results: the supplement of paper PMC10307832

Columns and labels:
Test in all cases: relative viability (nuclei count vs DMSO), 5 days (fraction); higher = more cells survive
Seliciclib + Phenformin = compound: CC[C@H](CO)Nc1nc(NCc2ccccc2)c2ncn(C(C)C)c2n1 [Seliciclib] + N=C(N)NC(=N)NCCc1ccccc1 [Phenformin] (partner 250 µM)
In short: (§1)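 Cells from lung cancer lines were seeded into 1536-well plates and, one day later, dosed by pin tool. Treatments were either a single drug or a fixed dose of an anchor drug with five library-drug doses (not always all listed) in √10 steps. After 5 days, nuclei were stained in a one-step fixation (final 0.05% Triton X-100, 1% formaldehyde, 1 ug/ml Hoechst) and counted on 4× images, and relative viability is the treated-to-vehicle nuclei ratio, as the median of duplicate plates.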

Seliciclib + Pictilisib = compound: CC[C@H](CO)Nc1nc(NCc2ccccc2)c2ncn(C(C)C)c2n1 [Seliciclib] + CS(=O)(=O)N1CCN(Cc2cc3nc(-c4cccc5[nH]ncc45)nc(N4CCOCC4)c3s2)CC1 [Pictilisib] (partner 1 µM)
In short: as §1

Seliciclib + Palbociclib = compound: CC[C@H](CO)Nc1nc(NCc2ccccc2)c2ncn(C(C)C)c2n1 [Seliciclib] + CC(=O)c1c(C)c2cnc(Nc3ccc(N4CCNCC4)cn3)nc2n(C2CCCC2)c1=O [Palbociclib] (partner 0.5 µM)
In short: as §1

Seliciclib + Decitabine = compound: CC[C@H](CO)Nc1nc(NCc2ccccc2)c2ncn(C(C)C)c2n1 [Seliciclib] + Nc1ncn([C@H]2C[C@H](O)[C@@H](CO)O2)c(=O)n1 [Decitabine] (partner 2 µM)
In short: as §1

Cell Line	relative viability (Seliciclib + Phenformin; first compound 0.08 µM)	relative viability (Seliciclib + Phenformin; first compound 0.253 µM)	relative viability (Seliciclib + Phenformin; first compound 0.8 µM)	relative viability (Seliciclib + Phenformin; first compound 2.53 µM)	relative viability (Seliciclib + Phenformin; first compound 8 µM)	relative viability (Seliciclib + Pictilisib; first compound 0.08 µM)	relative viability (Seliciclib + Pictilisib; first compound 0.253 µM)	relative viability (Seliciclib + Pictilisib; first compound 0.8 µM)	relative viability (Seliciclib + Pictilisib; first compound 2.53 µM)	relative viability (Seliciclib + Pictilisib; first compound 8 µM)	relative viability (Seliciclib + Palbociclib; first compound 0.08 µM)	relative viability (Seliciclib + Palbociclib; first compound 0.253 µM)	relative viability (Seliciclib + Palbociclib; first compound 0.8 µM)	relative viability (Seliciclib + Palbociclib; first compound 2.53 µM)	relative viability (Seliciclib + Palbociclib; first compound 8 µM)	relative viability (Seliciclib + Decitabine; first compound 0.08 µM)	relative viability (Seliciclib + Decitabine; first compound 0.253 µM)	relative viability (Seliciclib + Decitabine; first compound 0.8 µM)	relative viability (Seliciclib + Decitabine; first compound 2.53 µM)	relative viability (Seliciclib + Decitabine; first compound 8 µM)
H3255	0.357	0.357	0.368	0.322	0.348	0.47	0.567	0.487	0.483	0.502	0.344	0.314	0.306	0.26	0.293	0.594	0.61	0.684	0.571	0.479
EPLC-272H	0.329	0.335	0.295	0.219	0.333	0.316	0.338	0.287	0.174	0.3	0.33	0.247	0.284	0.323	0.311	0.373	0.432	0.336	0.395	0.342
PC-3 [JPC-3]	0.477	0.459	0.453	0.49	0.433	0.825	0.954	0.652	0.712	0.652	0.477	0.615	0.543	0.498	0.476	0.819	0.883	0.906	0.809	0.767
EKVX		0.255	0.189	0.215	0.199	0.42	0.5	0.417	0.423	0.305	0.365	0.305	0.311	0.16	0.204	0.299	0.224	0.366	0.184	0.377
ChaGo-K-1	0.485	0.389	0.508	0.422	0.384	0.766	0.533	0.638	0.513	0.378	0.915	0.957	0.755	0.875	0.805	0.519	0.472	0.509	0.516	0.475
NCI-H23	0.83	0.809	0.784	0.672	0.603	0.507	0.462	0.395	0.283	0.365	0.548	0.49	0.416	0.335	0.258	0.278	0.293	0.316	0.288	0.268
EMC-BAC-2	0.505	0.515	0.524	0.436	0.479	0.505	0.526	0.497	0.392	0.51	0.516	0.474	0.543	0.423	0.455	0.918	1.01	1	0.753	0.856
LOU-NH91	0.609	0.666	0.671	0.589	0.552	0.49	0.573	0.495	0.484	0.468		0.56	0.513	0.492	0.466		0.795	0.784	0.785	0.693
LU99A	0.898	0.937	0.817	0.705	0.714	0.349	0.301	0.374	0.229	0.284	0.378	0.332	0.357	0.318	0.275	0.914	0.777	0.978	0.837	0.739
NCI-H1395	0.433	0.438	0.455	0.453	0.428	0.6	0.757	0.641	0.535	0.649	0.596	0.49	0.604		0.523	0.729	0.621	0.681		0.705
NCI-H460	0.55	0.526	0.515	0.567	0.469	0.367	0.376	0.275	0.248	0.252	0.203	0.186	0.169	0.117	0.0761	0.455	0.57	0.446	0.591	0.388
201T	0.413	0.441	0.47	0.383	0.418	0.712	0.693	0.676	0.656	0.626	0.329	0.349	0.353	0.327	0.277	0.827	0.893	0.857	0.806	0.728
NCI-H1648											0.259	0.332	0.308	0.231	0.169	0.486	0.615	0.605	0.45	0.473
NCI-H2405	0.362	0.399	0.319	0.324	0.355	0.462	0.43	0.314	0.288	0.35	0.485	0.483	0.552	0.361	0.452	0.758	0.68	0.742	0.63	0.716
NCI-H1703						0.252	0.234	0.26	0.225	0.241										
NCI-H1755	0.601	0.6	0.586	0.584	0.599	0.414	0.504	0.389	0.339	0.386	0.417	0.477	0.342	0.433	0.412	0.71	0.644	0.719	0.759	0.721

Cell Line	relative viability (Seliciclib + Phenformin; first compound 0.08 µM)	relative viability (Seliciclib + Phenformin; first compound 0.253 µM)	relative viability (Seliciclib + Phenformin; first compound 0.8 µM)	relative viability (Seliciclib + Phenformin; first compound 2.53 µM)	relative viability (Seliciclib + Phenformin; first compound 8 µM)	relative viability (Seliciclib + Pictilisib; first compound 0.08 µM)	relative viability (Seliciclib + Pictilisib; first compound 0.253 µM)	relative viability (Seliciclib + Pictilisib; first compound 0.8 µM)	relative viability (Seliciclib + Pictilisib; first compound 2.53 µM)	relative viability (Seliciclib + Pictilisib; first compound 8 µM)	relative viability (Seliciclib + Palbociclib; first compound 0.08 µM)	relative viability (Seliciclib + Palbociclib; first compound 0.253 µM)	relative viability (Seliciclib + Palbociclib; first compound 0.8 µM)	relative viability (Seliciclib + Palbociclib; first compound 2.53 µM)	relative viability (Seliciclib + Palbociclib; first compound 8 µM)	relative viability (Seliciclib + Decitabine; first compound 0.08 µM)	relative viability (Seliciclib + Decitabine; first compound 0.253 µM)	relative viability (Seliciclib + Decitabine; first compound 0.8 µM)	relative viability (Seliciclib + Decitabine; first compound 2.53 µM)	relative viability (Seliciclib + Decitabine; first compound 8 µM)
NCI-H2087	0.537	0.495	0.411	0.41	0.385	1.03	1.12	0.508	0.813	0.832	0.28	0.288	0.241	0.16	0.151	0.284	0.313	0.247	0.227	0.221
NCI-H2228	0.322	0.209	0.287	0.275	0.257	0.372	0.333	0.234	0.457	0.339	0.851	0.617	0.714	0.86	0.507					
NCI-H727	0.562	0.488	0.561	0.373	0.472	0.43	0.338	0.197	0.232	0.296	0.619	0.601	0.555	0.577	0.575	0.874	0.88	0.82	0.441	0.861
NCI-H650	0.48	0.467	0.532	0.257	0.46	0.887	0.869	1.04		0.772	0.357	0.264	0.402	0.248	0.234	0.333	0.299	0.306	0.295	0.332
NCI-H520	0.61		0.571	0.634	0.38	0.305	0.326	0.287	0.318	0.252	0.237	0.187	0.17	0.189	0.203	0.522	0.486	0.537	0.632	0.643
EBC-1						0.449	0.407	0.387	0.354	0.343										
NCI-H661	0.274	0.26	0.297	0.264	0.304	0.362	0.404	0.375	0.295	0.354	0.396	0.401	0.359	0.286	0.292	0.552	0.597	0.549	0.511	0.435
NCI-H1299						0.792	0.765	0.72	0.841	0.656										
LK-2	0.475	0.415	0.358	0.243	0.274	0.591	0.562	0.614	0.541	0.447	0.466	0.423	0.509	0.447	0.285	0.359	0.276	0.309	0.166	0.263
SW 900	0.62	0.6	0.404	0.643	0.418						0.583	0.489	0.513	0.411	0.306	0.45	0.403	0.457	0.478	0.346
NCI-H596	0.66		0.83	0.784	0.595	0.376	0.36	0.403	0.421	0.415						0.951		0.961	1.03	0.828
IA-LM						0.338	0.412	0.344	0.346	0.232										
NCI-H1563	0.754	0.63	0.651	0.626	0.664	0.649	0.621	0.681	0.567	0.691										
NCI-H2342	0.606	0.54	0.533	0.496	0.521						0.63	0.477	0.539	0.524	0.492	0.668	0.637	0.736	0.649	0.747
NCI-H522	0.731	0.655	0.645	0.599	0.709						0.913	1.01	0.972	0.909	0.87	0.699	0.545	0.659	0.645	0.611
CAL-12T	0.604	0.789	0.612	0.53	0.376	0.304	0.566	0.39	0.303	0.221	0.524	0.469	0.354	0.226	0.207					
